Experimental data reported in patent publication US9492462B2, “Composition for elastin production” (HUMAN MATRIX SCIENCES, LLC, priority 2007, dated 2016).

Test system: fibroblasts derived from dermal scar tissue
Assay: Elastin immunostaining in 7-day cultures of dermal scar fibroblasts
Format: cell-based, human
Conditions: 50 nM aldosterone alone or with 2 μM spironolactone; vs untreated control or spironolactone only
Description: Biological effects of aldosterone and spironolactone were tested in cultures of dermal fibroblasts derived from normal skin, stretch-marked skin and dermal scars derived from Caucasian females, of different ages ranging from 30-38 years old. All fibroblasts were originally isolated by allowing them to migrate out of skin explants and then passaged by trypsinization and maintained in alpha-minimum essential medium supplemented with 20 mM Hepes, 1% antibiotics and antimycotics, 1% L-Glutamate and 2% fetal bovine serum (FBS) as previously described Hinek et al. “Impaired elastic-fiber assembly by fibroblasts from patients with either Morquio B disease or infantile GM1-gangliosidosis is linked to deficiency in the 67-kD spliced variant of beta-galactosidase.” Am J Hum Genet. 2000 July; 67(1):23-36 hereby incorporated by reference in its entirety. In all experiments, consecutive passages 3-4 were tested. Cells were densely plated (50×10^5 cells/dish) to reach confluency and then cultured for 7 days in the presence and absence of different concentrations of (10 nM-1 μM) aldosterone, 2 μM spironolactone, alone or in combinations with other reagents, as described in figure legends.
7-day-old cultures of fibroblasts, which produce abundant ECM, were assessed. All cultures were fixed in cold 100% methanol at −20° C. for 30 min, and then incubated for 1 hour with 2 μg/ml of polyclonal antibody to tropoelastin. Cultures were then incubated for an additional hour with appropriate fluorescein-conjugated secondary antibody (GAR-FITC). Nuclei were counterstained with propidium iodide. Morphometric analysis of five separate cultures in each experimental group, immunostained with antibodies recognizing extracellular matrix components, was performed using a computerized video analysis system (Image-Pro Plus software 3.0, Media Cybernetics, Silver Spring, Md.) as described previously in Hinek et al. “Decreased elastin deposition and high proliferation of fibroblasts from Costello syndrome are related to functional deficiency in the 67-kD elastin-binding protein.” Am J Hum Genet. […]

In the case of `C[C@]12CCC(=O)C=C1CC[C@@H]1[C@@H]2[C@@H](O)C[C@]2(C=O)[C@@H](C(=O)CO)CC[C@@H]12` [aldosterone], the “elastin stained by anti-elastin antibodies” value is reported as “increase in elastin”.
